This is an account of results in ChEMBL document CHEMBL4706549, “Isoquinolinone derivatives as potent CNS multi-receptor D/5-HT/5-HT/5-HT/5-HT agents: Synthesis and pharmacological evaluation” (Eur J Med Chem, 2020).

As a reminder, the Ki is the equilibrium dissociation constant of an inhibitor or competing ligand from its target. Low readings indicate tighter binding, high ones weaker binding. The IC50 is the concentration needed to halve the response being measured.

Structures are written as SMILES.

The target of assay [1] is Adrenergic receptor alpha-2 (Homo sapiens, UniProt P08913+P18825+P18089). In words: Binding affinity to alpha2 adrenergic receptor (unknown origin). It counts as protein assay.
Assay [2] has as its target Sodium-dependent serotonin transporter (Homo sapiens, UniProt P31645). In words: Binding affinity to SERT (unknown origin).
In assay [3] the target is T1, 5-hydroxytryptamine receptor 1A (Rattus norvegicus, UniProt P19327).
T1 sequence (P19327 whole entry): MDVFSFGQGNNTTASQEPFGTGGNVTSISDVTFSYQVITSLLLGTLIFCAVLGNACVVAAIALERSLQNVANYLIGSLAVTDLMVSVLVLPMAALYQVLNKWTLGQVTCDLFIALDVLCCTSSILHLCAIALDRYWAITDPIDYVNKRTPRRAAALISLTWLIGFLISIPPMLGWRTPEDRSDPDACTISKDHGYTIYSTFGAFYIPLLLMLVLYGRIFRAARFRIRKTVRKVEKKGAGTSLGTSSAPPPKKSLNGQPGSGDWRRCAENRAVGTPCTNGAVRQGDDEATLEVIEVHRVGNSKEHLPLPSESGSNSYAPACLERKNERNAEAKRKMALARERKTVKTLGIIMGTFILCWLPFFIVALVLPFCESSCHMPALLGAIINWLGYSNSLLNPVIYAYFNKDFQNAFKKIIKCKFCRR
Put plainly: biochemical.

For assay [4], the target named is Voltage-gated inwardly rectifying potassium channel KCNH2 (Homo sapiens, UniProt Q12809).
A further assay has as its target Histamine H1 receptor (Cavia porcellus, UniProt P31389).
Assay [5] concerns the target Sodium-dependent dopamine transporter (Homo sapiens, UniProt Q01959). Put plainly: Binding affinity to DAT (unknown origin).
Assay [6] concerns the target Adrenergic receptor alpha-1 (Rattus norvegicus, UniProt P15823+P23944+P43140).
For the next assay, the target named is D(3) dopamine receptor (Homo sapiens, UniProt P35462).
For assay [7], the target named is Sigma intracellular receptor 2 (Homo sapiens, UniProt Q5BJF2). Put plainly: Binding affinity to sigma 2 receptor (unknown origin).
The target in assay [8] is 5-hydroxytryptamine receptor 2C (Rattus norvegicus, UniProt P08909).
The target in assay [9] is Sigma non-opioid intracellular receptor 1 (Homo sapiens, UniProt Q99720). In words: Binding affinity to sigma 1 receptor (unknown origin).
A further assay addresses Histamine H3 receptor (Homo sapiens, UniProt Q9Y5N1). In words: Binding affinity to H3 receptor (unknown origin).
Assay [10] concerns the target 5-hydroxytryptamine receptor 2A (Homo sapiens, UniProt P28223). Put plainly: Antagonist activity at human 5HT2A receptor expressed in CHO-K1 cells assessed as inhibition of 5HT-induced calcium flux incubated for 60 mins at 37 degC followed by 15 mins incubation at room temperature and subsequent 5HT addition by calcium 4 dye based FLIPR assay. It counts as functional, cell-based.

Assay [11] concerns the target 5-hydroxytryptamine receptor 2A (Rattus norvegicus, UniProt P14842). Put plainly: biochemical.
Assay [12] deals with Sodium-dependent noradrenaline transporter (Homo sapiens, UniProt P23975). Put plainly: Binding affinity to NET (unknown origin).
The target in assay [13] is 5-hydroxytryptamine receptor 7 (Rattus norvegicus, UniProt P32305). In words: biochemical.
For the next assay, the target named is D(1A) dopamine receptor (Homo sapiens, UniProt P21728). Put plainly: Binding affinity to D1 receptor (unknown origin).

Chain of 5-hydroxytryptamine receptor 2A (Rattus norvegicus, UniProt P14842) (P14842 whole entry): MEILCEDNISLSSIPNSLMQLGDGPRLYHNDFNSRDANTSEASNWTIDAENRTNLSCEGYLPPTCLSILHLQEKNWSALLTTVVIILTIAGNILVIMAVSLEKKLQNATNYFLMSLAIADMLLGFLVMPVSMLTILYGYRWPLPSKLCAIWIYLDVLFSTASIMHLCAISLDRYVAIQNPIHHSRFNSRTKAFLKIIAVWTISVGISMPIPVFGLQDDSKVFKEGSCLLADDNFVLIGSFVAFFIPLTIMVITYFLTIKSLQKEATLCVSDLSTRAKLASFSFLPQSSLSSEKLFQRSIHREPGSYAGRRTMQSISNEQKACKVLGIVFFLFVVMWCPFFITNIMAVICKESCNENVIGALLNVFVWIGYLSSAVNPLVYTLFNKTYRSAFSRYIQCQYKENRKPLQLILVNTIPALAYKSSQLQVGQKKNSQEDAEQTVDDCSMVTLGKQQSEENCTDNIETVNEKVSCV
Chain of D(3) dopamine receptor (P35462 whole entry): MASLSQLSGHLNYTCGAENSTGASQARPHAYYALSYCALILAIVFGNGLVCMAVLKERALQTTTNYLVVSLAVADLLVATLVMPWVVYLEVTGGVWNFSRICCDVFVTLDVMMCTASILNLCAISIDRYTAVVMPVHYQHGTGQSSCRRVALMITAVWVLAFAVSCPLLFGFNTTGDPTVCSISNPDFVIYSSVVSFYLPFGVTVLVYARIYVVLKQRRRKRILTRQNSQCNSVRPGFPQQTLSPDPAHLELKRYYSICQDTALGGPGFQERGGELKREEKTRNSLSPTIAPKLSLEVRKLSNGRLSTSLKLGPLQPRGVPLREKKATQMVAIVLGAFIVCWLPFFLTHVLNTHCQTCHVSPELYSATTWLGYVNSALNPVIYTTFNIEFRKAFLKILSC
Chain of 5-hydroxytryptamine receptor 7 (P32305 whole entry): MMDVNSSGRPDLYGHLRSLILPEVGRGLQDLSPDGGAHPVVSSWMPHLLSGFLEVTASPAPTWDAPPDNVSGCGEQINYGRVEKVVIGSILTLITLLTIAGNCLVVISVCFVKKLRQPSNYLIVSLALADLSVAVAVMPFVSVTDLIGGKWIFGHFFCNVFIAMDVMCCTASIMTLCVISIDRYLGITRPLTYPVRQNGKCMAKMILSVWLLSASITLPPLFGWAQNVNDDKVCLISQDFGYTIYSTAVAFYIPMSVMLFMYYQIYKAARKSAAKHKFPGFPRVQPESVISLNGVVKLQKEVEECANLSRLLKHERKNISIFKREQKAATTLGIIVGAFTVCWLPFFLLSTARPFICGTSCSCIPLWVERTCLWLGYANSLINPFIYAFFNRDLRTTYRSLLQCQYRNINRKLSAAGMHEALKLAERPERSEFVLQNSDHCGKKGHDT
Chain of Sodium-dependent dopamine transporter (Q01959 whole entry): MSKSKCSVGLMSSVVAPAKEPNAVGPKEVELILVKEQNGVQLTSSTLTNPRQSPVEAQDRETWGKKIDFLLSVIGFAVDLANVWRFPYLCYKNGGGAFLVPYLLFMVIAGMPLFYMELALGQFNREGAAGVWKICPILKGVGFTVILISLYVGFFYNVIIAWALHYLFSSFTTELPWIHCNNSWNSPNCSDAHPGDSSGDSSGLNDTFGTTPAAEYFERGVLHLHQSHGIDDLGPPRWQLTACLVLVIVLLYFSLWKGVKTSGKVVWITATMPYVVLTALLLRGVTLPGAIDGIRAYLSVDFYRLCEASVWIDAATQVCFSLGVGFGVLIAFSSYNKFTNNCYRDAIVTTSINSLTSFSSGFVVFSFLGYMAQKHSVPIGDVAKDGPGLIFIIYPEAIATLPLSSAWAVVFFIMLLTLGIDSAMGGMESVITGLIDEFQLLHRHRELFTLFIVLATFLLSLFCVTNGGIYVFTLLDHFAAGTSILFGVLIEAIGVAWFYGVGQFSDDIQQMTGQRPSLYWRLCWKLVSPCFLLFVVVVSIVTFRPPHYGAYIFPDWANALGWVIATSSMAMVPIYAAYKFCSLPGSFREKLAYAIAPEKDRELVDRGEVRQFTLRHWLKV
Chain of Histamine H1 receptor (P31389 whole entry): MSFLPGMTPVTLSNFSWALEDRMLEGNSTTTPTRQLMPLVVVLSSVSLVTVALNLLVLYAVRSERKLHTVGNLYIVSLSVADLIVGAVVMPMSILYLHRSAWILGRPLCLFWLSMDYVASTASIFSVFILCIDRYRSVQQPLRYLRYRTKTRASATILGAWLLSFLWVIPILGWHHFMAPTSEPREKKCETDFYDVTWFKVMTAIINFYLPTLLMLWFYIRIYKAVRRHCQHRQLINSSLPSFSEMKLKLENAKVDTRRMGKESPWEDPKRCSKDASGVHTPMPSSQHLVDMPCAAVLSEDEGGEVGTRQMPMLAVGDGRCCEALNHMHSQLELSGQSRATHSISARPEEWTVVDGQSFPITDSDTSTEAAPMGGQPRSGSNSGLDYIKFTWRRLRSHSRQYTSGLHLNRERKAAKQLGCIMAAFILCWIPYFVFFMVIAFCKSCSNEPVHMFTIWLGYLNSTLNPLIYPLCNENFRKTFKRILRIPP
Chain of 5-hydroxytryptamine receptor 2C (P08909 whole entry): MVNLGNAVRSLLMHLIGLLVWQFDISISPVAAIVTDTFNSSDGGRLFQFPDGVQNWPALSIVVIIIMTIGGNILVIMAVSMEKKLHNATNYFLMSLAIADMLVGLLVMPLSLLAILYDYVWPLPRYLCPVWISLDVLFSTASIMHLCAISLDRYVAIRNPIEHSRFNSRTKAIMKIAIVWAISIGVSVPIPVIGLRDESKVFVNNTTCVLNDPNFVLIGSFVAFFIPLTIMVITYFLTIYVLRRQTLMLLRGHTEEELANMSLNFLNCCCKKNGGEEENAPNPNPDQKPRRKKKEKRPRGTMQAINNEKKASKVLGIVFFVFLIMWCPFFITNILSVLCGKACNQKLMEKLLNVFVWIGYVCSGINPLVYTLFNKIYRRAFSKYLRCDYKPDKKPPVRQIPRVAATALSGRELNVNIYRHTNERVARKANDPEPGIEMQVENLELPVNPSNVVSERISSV
Chain of Voltage-gated inwardly rectifying potassium channel KCNH2 (Q12809 whole entry): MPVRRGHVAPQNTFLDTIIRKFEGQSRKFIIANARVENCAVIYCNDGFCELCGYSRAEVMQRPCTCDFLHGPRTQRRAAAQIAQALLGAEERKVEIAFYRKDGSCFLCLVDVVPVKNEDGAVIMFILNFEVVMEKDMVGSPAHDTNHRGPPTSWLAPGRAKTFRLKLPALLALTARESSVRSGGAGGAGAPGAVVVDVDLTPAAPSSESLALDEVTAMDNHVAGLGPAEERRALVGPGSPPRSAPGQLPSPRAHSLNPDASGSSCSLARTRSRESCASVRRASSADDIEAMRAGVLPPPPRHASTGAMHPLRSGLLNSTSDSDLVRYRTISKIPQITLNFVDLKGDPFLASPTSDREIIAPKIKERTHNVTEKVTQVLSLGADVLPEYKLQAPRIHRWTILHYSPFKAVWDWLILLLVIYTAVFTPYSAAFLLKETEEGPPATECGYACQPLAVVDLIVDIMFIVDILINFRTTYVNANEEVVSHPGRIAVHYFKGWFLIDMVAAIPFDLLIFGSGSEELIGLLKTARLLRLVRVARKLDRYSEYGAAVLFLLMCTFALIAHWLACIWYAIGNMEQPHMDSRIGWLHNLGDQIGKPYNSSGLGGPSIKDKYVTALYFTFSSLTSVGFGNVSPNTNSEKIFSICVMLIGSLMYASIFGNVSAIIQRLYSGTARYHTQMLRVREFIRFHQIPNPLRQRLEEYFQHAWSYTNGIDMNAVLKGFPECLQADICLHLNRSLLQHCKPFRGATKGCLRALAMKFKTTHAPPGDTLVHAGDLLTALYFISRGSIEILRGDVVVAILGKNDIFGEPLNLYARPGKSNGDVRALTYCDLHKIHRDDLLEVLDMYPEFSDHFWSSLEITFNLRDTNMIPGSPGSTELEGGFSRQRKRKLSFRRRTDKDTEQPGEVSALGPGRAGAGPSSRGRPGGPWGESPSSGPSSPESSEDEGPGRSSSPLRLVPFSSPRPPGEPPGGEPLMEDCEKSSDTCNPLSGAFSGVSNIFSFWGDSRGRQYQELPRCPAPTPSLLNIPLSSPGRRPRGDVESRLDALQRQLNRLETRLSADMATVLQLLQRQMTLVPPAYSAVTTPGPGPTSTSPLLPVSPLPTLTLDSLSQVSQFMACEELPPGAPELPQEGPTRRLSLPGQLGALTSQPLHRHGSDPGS
Chain of Sodium-dependent serotonin transporter (P31645 whole entry): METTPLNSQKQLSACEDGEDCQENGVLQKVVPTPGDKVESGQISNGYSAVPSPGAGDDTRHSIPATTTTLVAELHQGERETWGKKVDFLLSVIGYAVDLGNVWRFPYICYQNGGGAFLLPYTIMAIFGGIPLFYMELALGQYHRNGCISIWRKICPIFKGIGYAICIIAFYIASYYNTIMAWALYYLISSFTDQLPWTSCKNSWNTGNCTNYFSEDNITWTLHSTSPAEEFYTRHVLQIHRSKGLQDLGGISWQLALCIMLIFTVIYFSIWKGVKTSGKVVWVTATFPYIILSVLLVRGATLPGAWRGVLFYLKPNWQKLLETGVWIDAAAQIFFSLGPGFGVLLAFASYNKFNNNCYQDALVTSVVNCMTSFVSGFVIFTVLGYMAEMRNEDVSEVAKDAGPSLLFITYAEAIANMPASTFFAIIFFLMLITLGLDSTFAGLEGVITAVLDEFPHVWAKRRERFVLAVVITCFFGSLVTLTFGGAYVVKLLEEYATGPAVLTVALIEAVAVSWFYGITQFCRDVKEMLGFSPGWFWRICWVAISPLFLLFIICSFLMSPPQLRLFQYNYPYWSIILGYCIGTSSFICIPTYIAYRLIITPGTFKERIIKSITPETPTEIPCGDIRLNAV
Chain of Sigma non-opioid intracellular receptor 1 (Q99720 whole entry): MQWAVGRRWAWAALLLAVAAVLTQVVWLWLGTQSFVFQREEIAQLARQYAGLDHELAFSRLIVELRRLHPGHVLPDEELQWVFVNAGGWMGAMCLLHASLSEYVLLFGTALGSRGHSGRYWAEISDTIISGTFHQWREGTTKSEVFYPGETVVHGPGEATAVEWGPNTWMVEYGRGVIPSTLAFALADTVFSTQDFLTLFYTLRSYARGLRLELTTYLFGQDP

Turning to `CN1CCc2ccc(OCCCN3CCC(c4noc5cc(F)ccc45)CC3)cc2C1=O`, the Ki is over 1000 nM in [1]; over 1000 nM in assay [2]; 9.1 nM in assay [3]; 1200 nM at Histamine H1 receptor; over 1000 nM in [5]; 991 nM in assay [6]. Further, the inhibitory constant (Ki) on D(3) dopamine receptor is 226 nM; in assay [7], over 1000 nM; in [8] it was 1690 nM; in [9], over 1000 nM; on Histamine H3 receptor, over 1000 nM; in assay [11], 0.65 nM. For the same molecule, the Ki was over 1000 nM in [12], 4.9 nM in [13] and over 1000 nM at D(1A) dopamine receptor. Further, the values for the 50% inhibitory concentration (IC50) in assay [4] and in assay [10] were 2310 nM and 46.3 nM, respectively.
